# Source: patent US20090325964A1, “Piperazine Metabotropic Glutamate Receptor 5 (MGLUR5) Negative Allosteric Modulators For Anxiety/Depression” (Wyeth, priority 2008, published 2009)
# pIC50, pKi: −log10 of the molar value.
# Target: T1, rat mGluR5 receptor (Rattus norvegicus, UniProt P31424)
# T1 construct: expressed in transfected cells; host or cells: HEK-293
# Assay: [3H]-MPEP displacement binding assay, HEK-293 cell membranes expressing rat mGluR5
# Settings: 1 h, single point, @ 10 μm compound; Table 1A; read-out: PCT INHIB (%) @ 10 μm
# In short: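 Membranes from HEK-293 cells expressing rat mGluR5 (12-25 μg protein), incubated 60 min at room temperature with 4 nM [3H]-MPEP in 50 mM Tris pH 7.5, then filtered. Nonspecific binding defined with 10 μM MPEP.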
# T1 sequence (P31424 21-1203): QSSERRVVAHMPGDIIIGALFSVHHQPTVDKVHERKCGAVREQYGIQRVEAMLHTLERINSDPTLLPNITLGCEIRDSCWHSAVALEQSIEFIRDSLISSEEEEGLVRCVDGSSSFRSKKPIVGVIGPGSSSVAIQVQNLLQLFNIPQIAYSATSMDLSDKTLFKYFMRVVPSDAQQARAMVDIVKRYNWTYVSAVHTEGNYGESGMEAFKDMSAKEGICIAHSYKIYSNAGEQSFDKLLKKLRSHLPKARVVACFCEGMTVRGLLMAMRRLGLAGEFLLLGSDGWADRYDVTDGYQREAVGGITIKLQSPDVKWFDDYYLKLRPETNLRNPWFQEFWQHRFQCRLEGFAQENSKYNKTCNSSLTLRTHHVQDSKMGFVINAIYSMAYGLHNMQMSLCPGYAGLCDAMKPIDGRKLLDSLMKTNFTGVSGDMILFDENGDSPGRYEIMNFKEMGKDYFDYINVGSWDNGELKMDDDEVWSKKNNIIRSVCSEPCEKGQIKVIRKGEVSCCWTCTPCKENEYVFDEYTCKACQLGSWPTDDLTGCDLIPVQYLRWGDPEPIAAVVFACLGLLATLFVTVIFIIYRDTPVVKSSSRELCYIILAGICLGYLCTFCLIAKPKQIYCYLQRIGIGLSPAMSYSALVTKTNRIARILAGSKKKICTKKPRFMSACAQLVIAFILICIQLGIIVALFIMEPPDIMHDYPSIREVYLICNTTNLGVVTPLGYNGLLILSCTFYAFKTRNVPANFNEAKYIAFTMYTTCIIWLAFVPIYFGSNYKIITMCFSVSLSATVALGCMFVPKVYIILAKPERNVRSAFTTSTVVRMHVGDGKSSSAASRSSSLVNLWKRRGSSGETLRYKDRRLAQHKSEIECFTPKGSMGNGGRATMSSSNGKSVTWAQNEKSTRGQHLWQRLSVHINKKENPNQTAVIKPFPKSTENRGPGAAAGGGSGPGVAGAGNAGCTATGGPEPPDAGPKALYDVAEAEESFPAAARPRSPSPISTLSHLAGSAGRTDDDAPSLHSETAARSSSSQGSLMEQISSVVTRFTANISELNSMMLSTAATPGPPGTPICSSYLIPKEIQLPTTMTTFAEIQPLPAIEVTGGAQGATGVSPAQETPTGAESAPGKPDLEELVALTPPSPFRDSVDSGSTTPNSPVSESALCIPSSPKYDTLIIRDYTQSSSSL
row,inhibition at 10 µM,Molecule
1,55%,"Cc1ccc(C#Cc2cccc(C(=O)N3CCN(c4ccccn4)CC3)c2)cc1 [Compound 1, 1-{3-[(4-methylphenyl)ethynyl]benzoyl}-4-pyridin-2-ylpiperazine]"

# Same assay, conditions: @ 10 μM compound; Biological Activity, Table 2A; read-out: PCT INHIB (%) @ 10 μM
row,inhibition at 10 µM,Molecule
1,28%,"O=C(c1cccc(C#Cc2ccccc2)c1)N1CCN(c2ccc(F)cc2)CC1 [Compound 79, 1-(4-fluorophenyl)-4-[3-(phenylethynyl)benzoyl]piperazine]"
2,32%,"O=C(c1cncc(C#Cc2ccccc2)c1)N1CCN(c2cnccn2)CC1 [Compound 137, 2-(4-{[5-(phenylethynyl)pyridin-3-yl]carbonyl}piperazin-1-yl)pyrazine]"
3,0%,"O=C(c1cncc(C#Cc2ccccc2)c1)N1CCN(c2ccncc2)CC1 [Compound 138, 1-{[5-(phenylethynyl)pyridin-3-yl]carbonyl}-4-pyridin-4-ylpiperazine]"
4,36%,"O=C(c1ccnc(C#Cc2ccccc2)c1)N1CCN(c2cnccn2)CC1 [Compound 127, 2-{4-[2-(phenylethynyl)isonicotinoyl]piperazin-1-yl}pyrazine]"
5,72%,"O=C(c1cccc(C#Cc2ccccn2)c1)N1CCN(c2ncc(C(F)(F)F)cc2Cl)CC1 [Compound 149, 1-[3-chloro-5-(trifluoromethyl)pyridin-2-yl]-4-[3-(pyridin-2-ylethynyl)benzoyl]piperazine]"
6,86%,"O=C(c1cccc(C#Cc2ccccc2)c1)N1CCN(c2ccccc2)CC1 [Compound 76, 1-phenyl-4-[3-(phenylethynyl)benzoyl]piperazine]"
7,0%,"N#Cc1ccc(N2CCN(C(=O)c3ccnc(C#Cc4ccccc4)c3)CC2)nc1 [Compound 122, 6-{4-[2-(phenylethynyl)isonicotinoyl]piperazin-1-yl}nicotinonitrile]"
8,40%,"COc1ccc(N2CCN(C(=O)c3cccc(C#Cc4ccccc4)c3)CC2)cc1 [Compound 71, 1-(4-methoxyphenyl)-4-[3-(phenylethynyl)benzoyl]piperazine]"
9,74%,"O=C(c1cccc(C#Cc2ccccc2)c1)N1CCN(c2ccc(O)cc2)CC1 [Compound 83, 4-{4-[3-(phenylethynyl)benzoyl]piperazin-1-yl}phenol]"

# Same assay, conditions: Biological Activity, Table 2A; read-out: Median Ki
row,pKi,Molecule
1,5.56,"O=C(c1cccc(C#Cc2ccccn2)c1)N1CCN(c2ncc(C(F)(F)F)cc2Cl)CC1 [Compound 149, 1-[3-chloro-5-(trifluoromethyl)pyridin-2-yl]-4-[3-(pyridin-2-ylethynyl)benzoyl]piperazine]"
2,5.89,"O=C(c1cccc(C#Cc2ccccc2)c1)N1CCN(c2ccccc2)CC1 [Compound 76, 1-phenyl-4-[3-(phenylethynyl)benzoyl]piperazine]"
3,< 5.00,"O=C(c1cccc(C#Cc2ccccc2)c1)N1CCN(c2ccc(O)cc2)CC1 [Compound 83, 4-{4-[3-(phenylethynyl)benzoyl]piperazin-1-yl}phenol]"

# Same assay, conditions: [3H]-MPEP displacement, rat mGluR5; read-out: Median Ki
row,pKi,Molecule
1,6.08,"COc1ccc(C(=O)N2CCN(S(=O)(=O)c3cccc(Cl)c3)CC2)cc1C#Cc1ccccn1 [Compound 279, 1-[(3-chlorophenyl)sulfonyl]-4-[4-methoxy-3-(pyridin-2-ylethynyl)benzoyl]piperazine]"
2,5.85,"COc1ccc(C(=O)N2CCN(S(=O)(=O)c3ccc(Cl)c(Cl)c3)CC2)cc1C#Cc1ccccn1 [Compound 239, 1-[(3,4-dichlorophenyl)sulfonyl]-4-[4-methoxy-3-(pyridin-2-ylethynyl)benzoyl]piperazine]"
3,6.34,"COc1ccc(C(=O)N2CCCN(c3ncccc3C#N)CC2)cc1C#Cc1ccccn1 [Compound 214, 2-{4-[4-methoxy-3-(pyridin-2-ylethynyl)benzoyl]-1,4-diazepan-1-yl}nicotinonitrile]"

row,Molecule,pKi
1,1-(4-chlorobenzyl)-4-[4-methoxy-3-(pyridin-2-ylethynyl)benzoyl]piperazin-2-one [Compound 334],7.27

# Same assay, conditions: [3H]-MPEP displacement, rat mGluR5 membranes; read-out: Median Ki
row,pKi,Molecule
1,5.51,"O=C(c1ccc(C(F)(F)F)c(C#Cc2ccccn2)c1)N1CCN(c2ccc(C(F)(F)F)cn2)CC1 [Compound 379, 1-{[3-(pyridin-2-ylethynyl)-4-(trifluoromethyl)phenyl]carbonyl}-4-[5-(trifluoromethyl)pyridin-2-yl]piperazine]"
2,6.09,"O=C(c1ccc(C(F)(F)F)c(C#Cc2ccccn2)c1)N1CCN(Cc2cccc(F)c2)CC1 [Compound 376, 1-(3-fluorobenzyl)-4-{[3-(pyridin-2-ylethynyl)-4-(trifluoromethyl)phenyl]carbonyl}piperazine]"

# Same assay, conditions: bound printed in place of a Ki; read-out: IC50 (printed in the Median Ki column)
row,pIC50,Molecule
1,< 5.00,"O=C(c1ccc(C(F)(F)F)c(C#Cc2ccccn2)c1)N1CCN(c2nc3ccccc3s2)CC1 [Compound 377, 2-(4-{[3-(pyridin-2-ylethynyl)-4-(trifluoromethyl)phenyl]carbonyl}piperazin-1-yl)-1,3-benzothiazole]"
